Results from article PMC3353862.
≈ marks a conversion by molar mass, not a printed value.

Assays:
[1] = test system: bacterial protein synthesis (aminoacylation/translation system); assay: aminoacylation/translation (A/T) assay; format: biochemical; conditions: for IC50: A/T assay, Table 1, read-out: IC50; for fold reduction of potency/biochemical activity in the A/T assay: relative to 321521
[2] = test system: E. faecalis; assay: Broth microdilution MIC testing; format: cell-based, Enterococcus faecalis; conditions: for MIC: Enterococcus faecalis, read-out: MIC E. fae; for MIC E. fae: E. faecalis
[3] = test system: M. catarrhalis; assay: Broth microdilution MIC testing; format: cell-based, Moraxella catarrhalis; conditions: for MIC: Moraxella catarrhalis
[4] = test system: H. influenzae; assay: Broth microdilution MIC testing; format: cell-based, Haemophilus influenzae; conditions: for MIC: Haemophilus influenzae, read-out: MIC H. flu; for MIC H. flu: H. influenzae
[5] = test system: S. pneumoniae; assay: Broth microdilution MIC testing; format: cell-based, Streptococcus pneumoniae; conditions: for MIC: Streptococcus pneumoniae, read-out: MIC S. pneumo; for MIC S. pneumo: S. pneumoniae
[6] = test system: S. aureus; assay: Broth microdilution MIC testing; format: cell-based, Staphylococcus aureus; conditions: for MIC: Staphylococcus aureus, read-out: MIC S. aureus
[7] = test system: E. coli tolC mutants; assay: Broth microdilution MIC testing; format: cell-based, Escherichia coli; conditions: for MIC: Escherichia coli, read-out: MIC E. coli tolC; for MIC E. coli tolC: E. coli tolC mutants
[8] = test system: E. coli modified with PMBN; assay: Broth microdilution MIC testing; format: cell-based, Escherichia coli; conditions: for MIC: Escherichia coli, read-out: MIC E. coli +PMBP; for MIC E. coli +PMBP: E. coli modified with PMBN
[9] = test system: panel of bacteria; assay: Antibacterial activity against the panel of bacteria (MIC, overall); format: cell-based; conditions: for antibacterial activity: panel of bacteria; for MIC (antibacterial activity grade): key: +: poor; ++: moderate; +++: good antibacterial activity

| SMILES | IC50 [1] [µM] | MIC [2] [µg/mL] | MIC [3] [µg/mL] | MIC [4] [µg/mL] | MIC [5] [µg/mL] | MIC [6] [µg/mL] | MIC [7] [µg/mL] | MIC [8] [µg/mL] | antibacterial activity [9] | MIC E. fae [2] [µg/mL] | MIC M. cat [3] [µg/mL] | MIC H. flu [4] [µg/mL] | MIC S. pneumo [5] [µg/mL] | MIC S. aureus [6] [µg/mL] | MIC E. coli tolC [7] [µg/mL] | MIC E. coli +PMBP [8] [µg/mL] | fold improvement in the IC50 ([1]; relative to the original two compounds) | MIC (antibacterial activity grade) ([9]; Table 2) | fold reduction of potency/biochemical activity in the A/T assay [1] | biochemical activity in the A/T assay [1] |
| --- | --- | --- | --- | --- | --- | --- | --- | --- | --- | --- | --- | --- | --- | --- | --- | --- | --- | --- | --- | --- |
| Oc1cccc(CN2CCc3nc(-c4ccccn4)nc(O)c3C2)c1 [Compound 321526] | 3.5 | > 128 | 64 (≈ 191 µM) | > 128 | > 128 | > 128 | > 128 | > 128 | little or no anti-bacterial activity | – | – | – | – | – | – | – | – | – | – | – |
| CCN(CC)Cc1cc(CN2CCc3nc(-c4ccccn4)[nH]c(=O)c3C2)ccc1OC [Compound 323193] | 4.1 | – | – | – | – | – | – | – | all antibacterial activity was lost | > 128 | > 128 | > 128 | > 128 | > 128 | > 128 | > 128 | – | – | – | – |
| COc1cc(CN2CCc3nc(-c4ccccn4)[nH]c(=O)c3C2)ccc1OCC(N)=O [Compound 323200] | 0.4 | – | – | – | – | – | – | – | MIC was above maximum testing concentrations for the entire panel of bacteria | > 128 | > 128 | > 128 | > 128 | > 128 | > 128 | > 128 | three to sevenfold | – | – | – |
| O=c1[nH]c(-c2ccccn2)nc2c1CN(Cc1cc(F)ccc1F)CC2 [Compound 323228] | 0.3 | – | – | – | – | – | – | – | – | 64 (≈ 181 µM) | 0.5 (≈ 1.41 µM) | 4 (≈ 11.3 µM) | 8 (≈ 22.6 µM) | – | 16 (≈ 45.2 µM) | 16 (≈ 45.2 µM) | – | ++ | – | – |
| CN(CCO)c1ccc(CN2CCc3nc(-c4ccccn4)[nH]c(=O)c3C2)cc1 [Compound 323232] | 3.2 | – | – | – | – | – | – | – | – | > 128 | 8 (≈ 20.4 µM) | > 128 | > 128 | > 128 | 128 (≈ 327 µM) | > 128 | – | – | – | – |
| COc1cc2c(cc1CN1CCc3nc(-c4ccccn4)[nH]c(=O)c3C1)OCO2 [Compound 323233] | > 300 | – | – | – | – | – | – | – | – | 128 (≈ 326 µM) | 4 (≈ 10.2 µM) | 16 (≈ 40.8 µM) | 32 (≈ 81.5 µM) | > 128 | 64 (≈ 163 µM) | 64 (≈ 163 µM) | – | – | – | – |
| COc1ccc(CN2CCc3nc(-c4ccccn4)[nH]c(=O)c3C2)cc1Cn1cccn1 [Compound 323234] | 5.8 | – | – | – | – | – | – | – | – | 128 (≈ 299 µM) | 16 (≈ 37.3 µM) | 128 (≈ 299 µM) | 128 (≈ 299 µM) | > 128 | > 128 | 64 (≈ 149 µM) | – | – | – | – |
| COc1ccc(CN2CCc3nc(-c4ccccn4)[nH]c(=O)c3C2)c(OC)c1O [Compound 323236] | 7.8 | – | – | – | – | – | – | – | – | > 128 | > 128 | > 128 | > 128 | > 128 | > 128 | > 128 | – | – | – | – |
| O=c1[nH]c(-c2ccccn2)nc2c1CN(Cc1cccc(F)c1F)CC2 [Compound 323237] | 2.8 | – | – | – | – | – | – | – | – | 64 (≈ 181 µM) | 0.5 (≈ 1.41 µM) | 4 (≈ 11.3 µM) | 8 (≈ 22.6 µM) | 32 (≈ 90.3 µM) | 8 (≈ 22.6 µM) | 16 (≈ 45.2 µM) | – | – | – | – |
| CC(=O)Oc1ccc(CN2CCc3nc(-c4ccccn4)[nH]c(=O)c3C2)cc1 [Compound 323238] | 2.1 | – | – | – | – | – | – | – | – | > 128 | 16 (≈ 42.5 µM) | 32 (≈ 85 µM) | > 128 | > 128 | > 128 | > 128 | – | – | – | – |
| CCOc1ccc(CN2CCc3nc(-c4ccccn4)[nH]c(=O)c3C2)cc1Cn1ccnc1 [Compound 323239] | 3 | – | – | – | – | – | – | – | – | 64 (≈ 145 µM) | 8 (≈ 18.1 µM) | 64 (≈ 145 µM) | > 128 | > 128 | 64 (≈ 145 µM) | 128 (≈ 289 µM) | – | – | – | – |
| O=C(c1ccc(Cl)cc1)N1CCc2nc(-c3ccccn3)[nH]c(=O)c2C1 [Compound 323353] | 1.7 | > 128 | 8 (≈ 21.8 µM) | 32 (≈ 87.2 µM) | 128 (≈ 349 µM) | > 128 | 128 (≈ 349 µM) | 128 (≈ 349 µM) | – | – | – | – | – | – | – | – | – | – | – | – |
| O=c1[nH]c(-c2cnccn2)nc2c1CN(Cc1ccc(Cl)cc1)CC2 [Compound 323354] | 21.6 | > 128 | 16 (≈ 45.2 µM) | > 128 | > 128 | > 128 | > 128 | > 128 | – | – | – | – | – | – | – | – | – | – | tenfold | – |
| Clc1ccc(CN2CCc3nc(-c4ccccn4)ncc3C2)cc1 [Compound 323355] | 32.1 | > 128 | 4 (≈ 11.9 µM) | 64 (≈ 190 µM) | 64 (≈ 190 µM) | 128 (≈ 380 µM) | 64 (≈ 190 µM) | 64 (≈ 190 µM) | – | – | – | – | – | – | – | – | – | – | – | – |
| O=C(Cc1ccc(Cl)cc1)N1CCc2nc(-c3ccccn3)[nH]c(=O)c2C1 [Compound 323369] | 2.01 | 64 (≈ 168 µM) | 4 (≈ 10.5 µM) | 16 (≈ 42 µM) | 64 (≈ 168 µM) | 128 (≈ 336 µM) | 64 (≈ 168 µM) | 32 (≈ 84 µM) | – | – | – | – | – | – | – | – | – | – | – | – |
| Cc1cccc(-c2nc3c(c(=O)[nH]2)CN(Cc2ccc(Cl)cc2)CC3)n1 [Compound 332052] | > 300 | > 128 | 32 (≈ 87.2 µM) | > 64 | > 128 | > 128 | > 128 | > 128 | – | – | – | – | – | – | – | – | – | – | – | completely abolished activity |
| O=c1[nH]c(-c2ccco2)nc2c1CN(Cc1ccc(Cl)cc1)CC2 [Compound 332053] | > 300 | > 128 | > 128 | > 64 | > 128 | > 128 | > 128 | > 128 | – | – | – | – | – | – | – | – | – | – | – | abolished all biochemical activity |
| O=c1nc(-c2ccccn2)nc2ccn(Cc3ccc(Cl)cc3)cc1-2 [Compound 332055] | 16.4 | 64 (≈ 183 µM) | 32 (≈ 91.7 µM) | 16 (≈ 45.9 µM) | 128 (≈ 367 µM) | > 128 | 128 (≈ 367 µM) | 64 (≈ 183 µM) | – | – | – | – | – | – | – | – | – | – | – | – |
| O=c1[nH]c(-c2cccs2)nc2c1CN(Cc1ccc(Cl)cc1)CC2 [Compound 332057] | 101 | > 128 | > 128 | > 128 | > 128 | > 128 | > 128 | > 128 | – | – | – | – | – | – | – | – | – | – | over 40 fold | – |
